Literature values, collected in patent publication US20210113561A1, “PHARMACEUTICAL COMPOSITION, METHODS FOR TREATING AND USES THEREOF” (Boehringer Ingelheim International GmbH, priority 2018, published 2021).

Experiments:
[1] = target: T1, SGLT2 (Homo sapiens, UniProt P31639)
T1 sequence (P31639 1-672): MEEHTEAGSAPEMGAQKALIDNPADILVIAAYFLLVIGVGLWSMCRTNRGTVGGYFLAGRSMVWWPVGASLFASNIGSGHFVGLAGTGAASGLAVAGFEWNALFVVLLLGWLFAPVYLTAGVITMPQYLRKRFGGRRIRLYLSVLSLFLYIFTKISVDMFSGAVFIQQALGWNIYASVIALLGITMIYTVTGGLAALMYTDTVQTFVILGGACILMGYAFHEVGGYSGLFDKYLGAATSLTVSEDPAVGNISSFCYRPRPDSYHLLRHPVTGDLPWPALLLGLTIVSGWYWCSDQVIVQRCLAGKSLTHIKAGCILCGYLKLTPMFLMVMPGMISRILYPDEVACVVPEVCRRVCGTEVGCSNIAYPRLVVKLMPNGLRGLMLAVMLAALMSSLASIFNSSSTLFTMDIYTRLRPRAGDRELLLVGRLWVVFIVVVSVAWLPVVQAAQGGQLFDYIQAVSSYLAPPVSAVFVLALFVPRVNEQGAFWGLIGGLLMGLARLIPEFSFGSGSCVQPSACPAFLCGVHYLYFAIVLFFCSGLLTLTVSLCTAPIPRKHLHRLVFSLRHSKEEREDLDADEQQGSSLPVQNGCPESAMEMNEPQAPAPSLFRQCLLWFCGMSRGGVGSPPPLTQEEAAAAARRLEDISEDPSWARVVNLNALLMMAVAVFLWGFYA

[2] = patients with type 2 diabetes mellitus at high risk for cardiovascular events
[3] = metformin on its own, in the diabetic

OC[C@H]1O[C@@H](c2ccc(Cl)c(Cc3ccc(O[C@H]4CCOC4)cc3)c2)[C@H](O)[C@@H](O)[C@@H]1O [empagliflozin]
selectivity SGLT2 versus SGLT1 [1]: high selectivity | rates of death from any cause [2]: significantly lower rates | rates of the primary composite cardiovascular outcome [2]: significantly lower rates

CN(C)C(=N)N=C(N)N [metformin]
average improvement in the HbA1c value [3]: 1.0-1.5%
